Measurements as given in patent publication US8110681B2, “Compounds for the treatment of spinal muscular atrophy and other uses” (The United States of America as represented by the …, priority 2006, dated 2012).
Like-named read-outs stand apart in the source and are kept apart here.

System: SMN2-linked luciferase-reporter gene construct
Test: SMN splice reporter assay (SMN2-linked luciferase reporter, Example 10)
Assay type: cell-based
Settings: for EC50: SMN2-linked luciferase reporter
Description: Cervical carcinoma cell lines were transformed with a SMN2-linked luciferase-reporter gene construct. The reporter is designed to detect shifts in the alternative splicing of SMN2 sequences. In particular, the reporter is constructed as a fusion of the alternatively spliced sequences of the SMN2 gene and the luciferase gene. Luciferase sequences are in the correct translational reading frame only when the SMN2 sequences are spliced according to the normal SMN1 mechanism (e.g., splicing to include exon 7), which allows for translation of the stable SMN protein. Compounds were tested in the assay by administering the compound to the cell line and detecting an increase in the luciferase activity. The assay is described in greater detail in Zhang et al., Gene Ther., 8, 1532-8 (2001). Compounds were administered as described in Lunn et al, Chem. & Biol, 11, 1489-1493 (2004).
The results are reported as a fold-increase over a baseline reading of transformed cells without any test compound.

[1] = maximum fold increase of reporter signal, average, read-out: SMN Splice Reporter Assay (Example 10) Avg MaxFold Increase

Structure (SMILES) | EC50 (average) [µM] | SMN Splice Reporter Assay (Example 10) Avg MaxFold Increase (maximum fold increase of reporter signal, average) | maximal fold induction [1] | maximal fold induction (read-out: SMN Splice Reporter Assay (Example 10) Avg MaxFold Increase, maximum fold increase of reporter signal, average, heading: SMN Splice Reporter Assay Avg MaxFold Increase)
CC(C(=O)OC(C)(C)C)c1ccc(N2Cc3ccccc3C2=O)cc1 (stereo not drawn) [ALB-111730] | 1.66 | 1.267 |  | 
COC(=O)C(C)c1ccc(N2Cc3ccccc3C2=O)cc1 (stereo not drawn) [ALB-111731] | 0.174 |  | 1.43 | 
CCOC(=O)C(C)c1ccc(N2Cc3ccccc3C2=O)cc1 (stereo not drawn) [ALB-111732] | 0.325 |  | 1.41 | 
CC(C(=O)OCc1ccccc1)c1ccc(N2Cc3ccccc3C2=O)cc1 (stereo not drawn) [ALB-111733] | 0.528 |  | 1.56 | 
CC(C(=O)OC(C)(C)C)c1ccc(N2Cc3ccccc3C2=O)cc1 (stereo not drawn) [ALB-111738] | 2.29 |  | 1.17 | 
CC(C(=O)OC(C)(C)C)c1ccc(N2Cc3ccc(Cl)cc3C2=O)cc1 (stereo not drawn) [ALB-111740] | 2.02 |  | 1.49 | 
CC(C(=O)NS(C)(=O)=O)c1ccc(N2Cc3ccccc3C2=O)cc1 (stereo not drawn) [ALB-111744] |  |  | 1.14 | 
CC(C(=O)OC(C)(C)C)c1ccc(N2Cc3ccc(N)cc3C2=O)cc1 (stereo not drawn) [ALB-111745] | 2.12 |  | 1.17 | 
CC(C(=O)NC#N)c1ccc(N2Cc3ccccc3C2=O)cc1 (stereo not drawn) [ALB-111746] |  |  | 1.11 | 
CC(C(=O)NS(=O)(=O)c1ccccc1)c1ccc(N2Cc3ccccc3C2=O)cc1 (stereo not drawn) [ALB-111747] |  |  | 1.04 | 
CC(C(=O)NO)c1ccc(N2Cc3ccccc3C2=O)cc1 (stereo not drawn) [ALB-111748] | 2.27 |  | 1.38 | 
CC(C(=O)NS(=O)(=O)N(C)C)c1ccc(N2Cc3ccccc3C2=O)cc1 (stereo not drawn) [ALB-111749] | 14 |  | 1.16 | 
CC(C(=O)OC(C)(C)C)c1ccc(N2Cc3c(Cl)cccc3C2=O)cc1 (stereo not drawn) [ALB-111760] |  |  | 1.07 | 
CC(C(=O)OC(C)(C)C)c1ccc(N2Cc3cc(Cl)ccc3C2=O)cc1 (stereo not drawn) [ALB-111761] | 5.56 |  | 1.19 | 
CC(C(=O)O)c1ccc(N2Cc3cc(Cl)ccc3C2=O)cc1 (stereo not drawn) [ALB-111762] | 0.358 |  | 1.38 | 
CC(C(=O)O)c1ccc(N2Cc3c(Cl)cccc3C2=O)cc1 (stereo not drawn) [ALB-111763] | 13.9 |  | 1.17 | 
CC(C(=O)OC(C)(C)C)c1ccc(N2Cc3cccc(Cl)c3C2=O)cc1 (stereo not drawn) [ALB-111783] | 1.56 |  | 1.13 | 
CC(C(=O)OC(C)(C)C)c1ccc(N2Cc3cc(-c4ccc(Cl)c(Cl)c4)ccc3C2=O)cc1 (stereo not drawn) [ALB-111854] |  |  | 1.04 | 
CCCC(C)(C(=O)O)c1ccc(N2Cc3ccccc3C2=O)cc1 (stereo not drawn) [ALB-111857] |  |  | 1.07 | 
CC(C(=O)OC(C)(C)C)c1ccc(N2Cc3cc(-c4cccnc4)ccc3C2=O)cc1 (stereo not drawn) [ALB-111884] |  |  | 1.03 | 
CC(C(=O)O)c1ccc(N2Cc3cc(-c4ccc(Cl)c(Cl)c4)ccc3C2=O)cc1 (stereo not drawn) [ALB-111885] |  |  | 1.09 | 
CC(C(=O)OC(C)(C)C)c1ccc(N2Cc3cc(-c4ccc(Cl)cc4)ccc3C2=O)cc1 (stereo not drawn) [ALB-111886] |  |  | 1.07 | 
Cc1ccc(-c2ccc3c(c2)CN(c2ccc(C(C)C(=O)OC(C)(C)C)cc2)C3=O)cc1 (stereo not drawn) [ALB-111887] |  |  | 1.04 | 

Structure (SMILES) | EC50 (average) [µM] | SMN Splice Reporter Assay (Example 10) Avg MaxFold Increase (maximum fold increase of reporter signal, average) | maximal fold induction [1] | maximal fold induction (read-out: SMN Splice Reporter Assay (Example 10) Avg MaxFold Increase, maximum fold increase of reporter signal, average, heading: SMN Splice Reporter Assay Avg MaxFold Increase)
CC(C(=O)OC(C)(C)C)c1ccc(N2Cc3cc(-c4ccccc4)ccc3C2=O)cc1 (stereo not drawn) [ALB-111888] |  |  | 1.1 | 
CC(C(=O)O)c1ccc(N2Cc3cc(-c4cccnc4)ccc3C2=O)cc1 (stereo not drawn) [ALB-111889] |  |  | 1.05 | 
COc1ccc2c(c1)CN(c1ccc(C(C)C(=O)OC(C)(C)C)cc1)C2=O (stereo not drawn) [ALB-111893] |  |  | 1.09 | 
COc1cccc2c1CN(c1ccc(C(C)C(=O)O)cc1)C2=O (stereo not drawn) [ALB-111895] |  |  | 1.15 | 
CC(C(=O)O)c1ccc(N2Cc3cc(N)ccc3C2=O)cc1 (stereo not drawn) [ALB-111950a] |  |  | 1.07 | 
CC(C(=O)OC(C)(C)C)c1ccc(N2Cc3cccc([N+](=O)[O-])c3C2=O)cc1 (stereo not drawn) [ALB-111951] |  |  | 1.2 | 
CC(C(=O)OC(C)(C)C)c1ccc(N2Cc3c(N)cccc3C2=O)cc1 (stereo not drawn) [ALB-111952] |  |  | 1.04 | 
COc1ccc(C(=O)Nc2ccc3c(c2)C(=O)N(c2ccc(C(C)C(=O)OC(C)(C)C)cc2)C3)cc1 (stereo not drawn) [ALB-111954] |  |  | 1.04 | 
COc1cccc2c1C(=O)N(c1ccc(C(C)C(=O)O)cc1)C2 (stereo not drawn) [ALB-111957] |  |  | 1.23 | 
CC(C(=O)OC(C)(C)C)c1ccc(N2Cc3ccc(NC(=O)c4ccccc4)cc3C2=O)cc1 (stereo not drawn) [ALB-111958] |  |  | 1.06 | 
CC(C(=O)O)c1ccc(N2Cc3ccccc3C2=O)cc1Br (stereo not drawn) [ALB-111962] |  |  | 1.08 | 
CC(C(=O)OC(C)(C)C)c1ccc(N2Cc3ccccc3C2=O)cc1-c1ccc(Cl)c(Cl)c1 (stereo not drawn) [ALB-111963] |  |  | 1.02 | 
CC(C(=O)O)c1ccc(N2Cc3ccc(NC(=O)c4ccc(Cl)cc4)cc3C2=O)cc1 (stereo not drawn) [ALB-111983] |  |  | 1.06 | 
CC(C(=O)O)c1ccc(N2Cc3ccc(NC(=O)c4ccccc4)cc3C2=O)cc1 (stereo not drawn) [ALB-111986] |  |  | 1.06 | 
CC(C)C(=O)Nc1ccc2c(c1)C(=O)N(c1ccc(C(C)C(=O)OC(C)(C)C)cc1)C2 (stereo not drawn) [ALB-111989] |  |  | 1.06 | 
CC(C(=O)OC(C)(C)C)c1ccc(N2Cc3cc(-c4cncnc4)ccc3C2=O)cc1 (stereo not drawn) [ALB-111991] |  |  | 1.09 | 
CC(C(=O)OC(C)(C)C)c1ccc(N2Cc3cc(-c4cccs4)ccc3C2=O)cc1 (stereo not drawn) [ALB-111992] |  |  | 1.01 | 
CC(C(=O)O)c1ccc(N2Cc3c(N)cccc3C2=O)cc1 (stereo not drawn) [ALB-111996a] |  |  | 1.11 | 
CC(C(=O)OC(C)(C)C)c1ccc(N2Cc3ccccc3C2=O)c(Br)c1 (stereo not drawn) [ALB-111998] |  |  | 1.04 | 
CC(C(=O)O)c1ccc(N2Cc3ccccc3C2=O)cc1-c1ccc(Cl)c(Cl)c1 (stereo not drawn) [ALB-111999] |  |  | 1.05 | 
Cc1ccc(-c2cc(N3Cc4ccccc4C3=O)ccc2C(C)C(=O)OC(C)(C)C)cc1 (stereo not drawn) [ALB-112000] |  |  | 1.06 | 
COc1ccc(-c2cc(N3Cc4ccccc4C3=O)ccc2C(C)C(=O)OC(C)(C)C)cc1 (stereo not drawn) [ALB-112001] |  |  | 1.02 | 
COc1ccc(-c2cc(N3Cc4ccccc4C3=O)ccc2C(C)C(=O)O)cc1 (stereo not drawn) [ALB-112002] |  |  | 1.08 | 

Further lines, with some results ahead:

EC50 (average) [µM] | Structure (SMILES) | SMN Splice Reporter Assay (Example 10) Avg MaxFold Increase (maximum fold increase of reporter signal, average) | maximal fold induction [1] | maximal fold induction (read-out: SMN Splice Reporter Assay (Example 10) Avg MaxFold Increase, maximum fold increase of reporter signal, average, heading: SMN Splice Reporter Assay Avg MaxFold Increase)
1.13 | CC(C(=O)O)c1ccc(N2Cc3cccc(Cl)c3C2=O)cc1 (stereo not drawn) [ALB-111784] |  | 1.41 | 
25.8 | CCCC1c2ccccc2C(=O)N1c1ccc(C(C)C(=O)O)cc1 (stereo not drawn) [ALB-111795] |  | 1.41 | 
3.52 | CC(C)(C(=O)O)c1ccc(N2Cc3ccccc3C2=O)cc1 [ALB-111796] |  | 1.22 | 
21.4 | CC(C(=O)OC(C)(C)C)c1ccc(N2Cc3cc(Br)ccc3C2=O)cc1 (stereo not drawn) [ALB-111853] |  | 1.1 | 
0.553 | CC(C(=O)O)c1ccc(N2Cc3cc(Br)ccc3C2=O)cc1 (stereo not drawn) [ALB-111855] |  | 1.35 | 
0.568 | CC(C(=O)NS(=O)(=O)C(C)C)c1ccc(N2Cc3ccccc3C2=O)cc1 (stereo not drawn) [ALB-111856] |  | 1.14 | 
2.83 | CC(C(=O)OC(C)(C)C)c1ccc(N2Cc3ccccc3C2=O)cc1Br (stereo not drawn) [ALB-111882] |  | 1.24 | 
1.26 | CC(C(=O)O)c1ccc(N2Cc3ccc(N)cc3C2=O)cc1 (stereo not drawn) [ALB-111883a] |  | 1.17 | 
7.74 | CC(C(=O)O)c1ccc(N2Cc3cc(-c4ccc(Cl)cc4)ccc3C2=O)cc1 (stereo not drawn) [ALB-111890] |  | 1.16 | 
8.88 | Cc1ccc(-c2ccc3c(c2)CN(c2ccc(C(C)C(=O)O)cc2)C3=O)cc1 (stereo not drawn) [ALB-111891] |  | 1.31 | 
4.31 | COc1ccc(-c2ccc3c(c2)CN(c2ccc(C(C)C(=O)O)cc2)C3=O)cc1 (stereo not drawn) [ALB-111892] |  | 1.46 | 
3.16 | COc1cccc2c1CN(c1ccc(C(C)C(=O)OC(C)(C)C)cc1)C2=O (stereo not drawn) [ALB-111894] |  | 1.29 | 
5.22 | CC(C(=O)OC(C)(C)C)c1ccc(N2Cc3cc(N)ccc3C2=O)cc1 (stereo not drawn) [ALB-111949] |  | 1.29 | 
0.396 | COc1cccc2c1C(=O)N(c1ccc(C(C)C(=O)OC(C)(C)C)cc1)C2 (stereo not drawn) [ALB-111955] |  | 1.08 | 
0.451 | COc1ccc2c(c1)CN(c1ccc(C(C)C(=O)O)cc1)C2=O (stereo not drawn) [ALB-111959] |  | 1.26 | 
6.62 | CC(=O)Nc1ccc2c(c1)C(=O)N(c1ccc(C(C)C(=O)OC(C)(C)C)cc1)C2 (stereo not drawn) [ALB-111960] |  | 1.24 | 
1.43 | CC(C(=O)O)c1ccc(N2C(=O)c3ccccc3C2C)cc1 (stereo not drawn) [ALB-111964] |  | 1.63 | 
9.46 | COc1ccc(C(=O)Nc2ccc3c(c2)C(=O)N(c2ccc(C(C)C(=O)O)cc2)C3)cc1 (stereo not drawn) [ALB-111984] |  | 1.19 | 
2.95 | CC(C(=O)O)c1ccc(N2Cc3cc(-c4ccccc4)ccc3C2=O)cc1 (stereo not drawn) [ALB-111993] |  | 1.54 | 
4.18 | CC(C(=O)O)c1ccc(N2Cc3cc(-c4cncnc4)ccc3C2=O)cc1 (stereo not drawn) [ALB-111994] |  | 1.38 | 
12 | CC(C(=O)O)c1ccc(N2Cc3cccc([N+](=O)[O-])c3C2=O)cc1 (stereo not drawn) [ALB-111995] |  | 1.25 | 
0.175 | CC(C(=O)OC(C)(C)C)c1ccc(N2Cc3ccc(NS(C)(=O)=O)cc3C2=O)cc1 (stereo not drawn) [ALB-111997] |  |  | 1.01
2.06 | Cc1ccc(-c2cc(N3Cc4ccccc4C3=O)ccc2C(C)C(=O)O)cc1 (stereo not drawn) [ALB-112003] |  | 1.09 | 
